From US4673676A, “Pyrimidoisoquinoline derivatives useful for treating allergies” (Fujisawa Pharmaceutical Co., Ltd., priority 1983, dated 1987)

Test system: PCA (Passive Cutaneous Anaphylaxis) reaction
Assay: Inhibitory effect on PCA (Passive Cutaneous Anaphylaxis) reaction
Assay type: in vivo, male SD (Spraque-Dawley) strain rats
Conditions: rat, 1 mg/kg intravenously, 5 minutes before the challenge with antigen; percent inhibition of dye spot size vs control
Method: A solution of egg albumin (2 mg) in B. pertussisdiphtheria-tetanus mixed vaccine (1 ml) was mixed with Freund incomplete adjuvant (1 ml) to give an emulsion. The emulsion was given subcutaneously in a single dose of 1 ml divided equally (0.25 ml) to the four foot pads of male SD (Spraque-Dawley) strain rats aged 8 weeks, each weighing about 300 g.
8 days after the immunization, blood samples were collected from femoral artery of the rats and allowed to stand under ice-cooling for 5 hours. The separated supernatant was centrifuged at 4° C. (10,000 r.p.m.×1 hour). The antisera thus obtained were stored at -80° C. prior to use.
Male SD-strain rats aged 8 weeks, weighing 250 to 300 g, were used for PCA reaction with the homologous reaginic antiserum as prepared above. Each 0.1 ml of 32 fold diluted antiserum were injected intradermally at separate sites on the back of rats clipped free of hair, and 48 hours later, 1 ml of aqueous solution containing each 5 mg of the egg albumin and Evans blue was injected intravenously to evoke PCA reaction. Test compound was given to the animals intravenously 5 minutes before the challenge with antigen. Control group received vehicle. Each dose group consisted of 4 animals. […] The results were expressed by percent inhibition values calculated from averaged values of the longest and shortest diameters for each spot in comparison with those in control group. […]

N-(1H-tetrazol-5-yl)-10-(2,3-dimethylpentanoylamino)-7-methyl-4-oxo-4H-pyrimido[2,1-a]isoquinoline-3-carboxamide [Example 11]
Inhibitory effect: 100%
